Results filed as inconclusive are left out. Active and inactive are the calls of the source.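 The calls were made as follows: active = Wild-type ribosome reporter drop at least double the humanized mutant ribosome reporter drop, growth loss under a set limit; inconclusive = no clear call, values can overlap the other calls; inactive = the rest.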
Assays:
[1] = tested on: E. coli wild-type GFP strain growth, fluorescence, 24 h; experiment: growth inhibition of wild-type GFP E. coli, dose response, H69 mutant RFP, cherry-pick (AID 977621);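 also: wild-type GFP and H69 mutant RFP strains grown together 50/50 in each well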
[2] = tested on: E. coli H69 humanized mutant ribosome RFP strain growth, fluorescence, 24 h; experiment: as above; conditions: test 2
[3] = E. coli mixed culture, 24 h, measured here: total growth OD600, test 2

| Structure (SMILES) | AC50 [1, 3] [µM] | AC50 [2] [µM] | AC50 [1] |
| --- | --- | --- | --- |
| C=C(C)Cn1c(=O)c2c(nc3n2CC(C)CN3Cc2ccccc2)n(C)c1=O (stereo not drawn) | > 100 | > 100 | – |
| O=C(NCc1ccccc1)c1ccc(-c2ccccc2F)o1 | 36.1 | > 100 | – |
| O=C(NC1=NCCS1)c1sc2ccccc2c1Cl | 43.6 | > 100 | > 100 µM (inactive) |
| O=S(=O)(c1ccccc1)N1C[C@@H]2[C@H](c3ccccc31)[C@H](CO)N2Cc1ccccc1 | – | > 100 | > 100 µM (inactive) |
| CSc1c(-c2ccccn2)c(N)nn1C(=O)C1CC1 | – | > 100 | > 100 µM (inactive) |
| CCn1c2ccccc2c2cc(NC(=O)c3ccco3)ccc21 | 40 | > 100 | > 100 µM (inactive) |
| CC(C)C[C@H]1COc2cc(Br)ccc2S(=O)(=O)N1 | > 100 | 5.91 | – |
| COC(=O)c1ccsc1NC(=O)c1cccc(OC)c1 | > 100 | > 100 | – |
| C=C(C)Cn1c(=O)c2c(nc3n2CCCN3Cc2ccccc2)n(C)c1=O | – | > 100 | > 100 µM (inactive) |
| CCOc1ccc2oc(C(=O)NC3CCN(Cc4ccccc4)CC3)c(C)c2c1 | > 100 | 1.3 | – |
| Cc1ccc(N(CC(O)Cn2nc(C)cc2C)S(=O)(=O)c2ccc3ccccc3c2)cc1 (stereo not drawn) | 31.5 | > 100 | > 100 µM (inactive) |
| O=S(=O)(NC1CC1)c1ccc(S(=O)(=O)N2CCc3ccccc32)cc1 | > 100 | 8.03 | – |
| COc1ccccc1CNC(=O)CN1C(=O)NC(c2ccccc2)(c2ccccc2)C1=O | > 100 | 50.3 | – |
| CN1c2ccccc2-c2nc3ccccc3n2C1c1ccncc1 (stereo not drawn) | > 100 | > 100 | > 100 µM (inactive) |
| CCSc1nc2ccccc2c(=O)n1CCc1ccc(OC)c(OC)c1 | 44.4 | 47.2 | > 100 µM (inactive) |
| Cc1ccn2cc(-c3cccc(NC(=O)c4cccs4)c3)nc2c1 | > 100 | > 100 | – |
| CN(CCOc1ccc(CC2SC(=O)NC2=O)cc1)c1ccccn1 (stereo not drawn) | 40.7 | > 100 | > 100 µM (inactive) |
| Cn1c(=O)c2nc(-c3ccccc3)c(-c3ccccc3)nc2n(C)c1=O | 47.9 | 35.6 | > 100 µM (inactive) |
| O=c1c2cc(Br)ccc2[nH]c(=S)n1Cc1ccccc1 | 43.2 | > 100 | – |
| CCC1(C(=O)OC)CCc2c(cc(OC)c3ccccc23)C1=O (stereo not drawn) | 42.2 | > 100 | – |
| CCN(c1ccccc1)S(=O)(=O)c1cccc(C(=O)NCC(c2cccs2)N(C)C)c1 (stereo not drawn) | – | > 100 | > 100 µM (inactive) |
| COC(=O)c1c(NC(=O)c2ccccc2C(=O)O)sc2c1CCC2 | – | 45.4 | > 100 µM (inactive) |
| Cc1ccc(NC(=O)CN(C)C(=O)Cc2coc3cc(C)c(C)cc23)cc1 | 42.4 | 44 | > 100 µM (inactive) |

| Structure (SMILES) | AC50 [1, 3] [µM] | AC50 [2] [µM] | AC50 [1] |
| --- | --- | --- | --- |
| O=C(O)CCC(=O)NCc1c(Cl)cccc1Sc1ccc(Cl)cc1 | – | > 100 | > 100 µM (inactive) |
| O=C(O)c1cccnc1SCc1ccccc1Cl | – | 35.9 | – |
| COC(=O)C[C@H]1C[C@@H]2c3cc(NC(=O)Nc4ccc(C(F)(F)F)cc4)ccc3O[C@@H]2[C@H](CO)O1 | > 100 | > 100 | > 100 µM (inactive) |
| CN(c1ccccc1)S(=O)(=O)c1cccc(NC(=O)CCN2C(=O)C3CCCCC3C2=O)c1 (stereo not drawn) | – | > 100 | > 100 µM (inactive) |
| Cc1ccccc1Nc1c(-c2cccnc2)nc2ccc(Br)cn12 | – | > 100 | – |
| CN1CCSc2ccc(C(=O)Nc3cccc(F)c3)cc21 | – | 0.837 | – |
| COc1ccc(C2CC(=O)CCN2S(=O)(=O)c2ccc(C)cc2)cc1 (stereo not drawn) | – | 3.86 | – |
| CC(Nc1ncnc2ccccc12)c1ccccc1 (stereo not drawn) | – | > 100 | > 100 µM (inactive) |
| Cc1cc(NC(=O)CS(=O)(=O)c2cn(Cc3cccc(Br)c3)c3ccccc23)no1 | 46 | > 100 | – |
| COc1ccc(-c2csc(NC(=O)c3ccccc3S(C)(=O)=O)n2)cc1 | – | > 100 | – |
| CCOc1ccc(NC(=O)CCc2nnc3ccc(N4CCC(C)CC4)nn23)cc1 | – | 51.2 | – |
| COc1cccc(CNC(=O)CCSCc2ccccc2F)c1 | – | > 100 | – |
| Cc1c(CCOC(=O)C23CC4CC(CC(C4)C2)C3)sc[n+]1Cc1ccccc1 | – | 4.41 | – |
| CCCc1c(C(=O)Nc2ccc(OC)cc2)cnn1-c1ccccc1 | 38.1 | > 100 | > 100 µM (inactive) |
| CCc1c(N=O)c(-c2ccccc2)n(O)[n+]1[O-] | – | 6.29 | – |
| C[C@H]1CN([C@@H](C)CO)C(=O)CCCn2nncc2CO[C@@H]1CN(C)Cc1ccccc1C(F)(F)F | – | > 100 | – |
| CCC1=Nc2cc(C(=O)NCc3cccnc3)ccc2Sc2ccc(C)cc21 | – | > 100 | > 100 µM (inactive) |
| C(=C(c1ccccc1)c1ccccc1)c1ccccn1 | > 100 | > 100 | – |
| COc1ccc(-c2cn3cc(Cl)ccc3n2)cc1OC | 27.2 | 31.4 | > 100 µM (inactive) |
| O=C(Nc1nc(-c2ccc3ccccc3c2)cs1)C1CCN(S(=O)(=O)c2cccs2)CC1 | – | > 100 | – |
| Cc1ccccc1-c1nc(CS(=O)(=O)CC(=O)N2CCCCC2)c(C)o1 | – | > 100 | – |
| Cc1ccccc1-n1nnnc1SCCCC(=O)c1ccc(F)cc1 | – | 6.72 | – |
| Cc1noc(C)c1COc1cccc(C(=O)N2CCc3ccccc32)c1 | > 100 | > 100 | – |

| Structure (SMILES) | AC50 [1, 3] [µM] | AC50 [2] [µM] | AC50 [1] |
| --- | --- | --- | --- |
| COc1ccccc1NC(=O)CSc1ncc(CO)n1Cc1ccc(F)cc1 | – | > 100 | – |
| Cc1sc(NC(=O)CN2CCOCC2)nc1-c1ccc2c(c1)CCN2S(=O)(=O)c1ccccc1 | > 100 | 2.87 | – |
| CCN(CC)CCn1c(SCC(=O)Nc2cccc(OC)c2)nc2c(sc3ccccc32)c1=O | – | > 100 | > 100 µM (inactive) |
| COc1ccc2c(c1)c(C(C)=O)c(C)n2CCc1ccc(OC)c(OC)c1 | – | 51 | – |
| CCOc1ccccc1N1CCN(C(=O)CCCc2nc3ccccc3s2)CC1 | 37.2 | 43.7 | > 100 µM (inactive) |
| CNC(=O)c1ccsc1NC(=O)c1ccc(S(=O)(=O)N2CCc3ccccc32)cc1 | – | 2.19 | – |
| COc1ccc(-c2ccccc2)cc1NC(=O)c1ccncc1 | > 100 | 4.41 | – |
| CCOc1ccc(CCNC(=O)CN2C(=O)CCSc3ccccc32)cc1 | – | > 100 | > 100 µM (inactive) |
| Cc1ccc2c(N)c(C(=O)c3ccccc3)sc2n1 | – | 50.8 | – |
| O=C(Cn1c(C(=O)NCc2ccco2)cc2sccc21)c1ccccc1 | 50 | 47.2 | – |
| O=C(c1ccc(Cl)cc1)C1CCCN(Cc2cccc3cnccc23)C1 (stereo not drawn) | – | > 100 | > 100 µM (inactive) |
| O=C1CCCCC1Nc1ccc(Br)cc1 (stereo not drawn) | – | > 100 | – |
| Cc1ccc(NC(=O)CN(C)S(=O)(=O)c2cccc3cccnc23)cc1F | – | > 100 | – |
| CN(C)S(=O)(=O)c1cccc(C(=O)Nc2ccc(C(=O)Nc3cccc(S(N)(=O)=O)c3)cc2)c1 | – | > 100 | > 100 µM (inactive) |
| CCn1cc(Br)c(C(=O)Nc2ccc(C(=O)OC(C)C)cc2)n1 | – | 24.1 | > 100 µM (inactive) |
| O=C(Cc1c(Cl)cccc1Cl)Nc1cccc(S(=O)(=O)N2CCOCC2)c1 | 47.3 | > 100 | > 100 µM (inactive) |
| O=C(Nc1nnc(Cc2ccc(Cl)cc2)s1)c1ccncc1 | – | > 100 | – |
| C=CCn1c(SCC(=O)Nc2ccc3c(c2)OCCO3)nnc1-c1ccco1 | – | < 0.6 | > 100 µM (inactive) |
| Cc1cc(C)c(OCCN(C)Cc2ccccc2)c(Br)c1 | – | > 100 | – |
| COc1ccc(NC(=O)C2CC3C=CC2C3)c([N+](=O)[O-])c1 (stereo not drawn) | – | > 100 | > 100 µM (inactive) |
| O=S(=O)(NCC1CCCO1)c1ccc(-c2ccc(Cl)cc2)cc1 (stereo not drawn) | 44.5 | > 100 | > 100 µM (inactive) |
| CSc1ccc(CN(C)C(=O)C(c2ccccc2)c2ccccc2)cc1 | – | 50.1 | – |
| CSc1nnnn1-c1ccc(Cl)cc1 | – | > 100 | – |

| Structure (SMILES) | AC50 [1, 3] [µM] | AC50 [2] [µM] | AC50 [1] |
| --- | --- | --- | --- |
| CCOC(=O)c1ccoc1CN1CCN(S(=O)(=O)c2ccc(C)c(C)c2)CC1 | – | > 100 | > 100 µM (inactive) |
| O=S(=O)(NCc1ccc2c(c1)OCO2)c1ccc2c(c1)oc1ccccc12 | – | 52.3 | – |
| CC1Sc2ccc(S(=O)(=O)NCc3ccccc3)cc2NC1=O (stereo not drawn) | – | > 100 | – |
| Cc1cc(-c2ccc(C)c(S(=O)(=O)NCC3CCN(Cc4ccccc4F)CC3)c2)on1 | – | > 100 | – |
| Cc1nn(C(C)(C)C)c(OC(=O)CC(C)C)c1S(=O)(=O)c1ccccc1 | – | 30.7 | – |
| COC(C(=O)Nc1ccnn1C1CCN(Cc2ccc(Cl)s2)CC1)c1ccccc1 (stereo not drawn) | – | > 100 | – |
| Cn1c(CC2C(=O)Nc3ccc(Br)cc32)nc2ccccc2c1=O (stereo not drawn) | – | > 100 | – |
| Brc1ccccc1Cn1c(-c2cncs2)nc2ccccc21 | – | > 100 | – |
| C=CCNC(=O)c1ccccc1CCc1ccccc1 | – | > 100 | – |
| O=C(O)c1cc(-c2ccc(-c3ccc(F)cc3)o2)nc2ccccc12 | – | 39.6 | – |
| CCCCNC(=O)C[C@@H]1C[C@@]2(C(=O)OC)CCCCC=C2N(Cc2ccccc2)C1=O | – | > 100 | – |
| Cc1ccc(Cl)cc1N1CCN(C(=O)c2ccc3nc[nH]c3c2)CC1 | – | 51.4 | – |
| O=C1c2ccccc2C(c2nnnn2C2CCCCC2)N1CCc1ccc(O)cc1 (stereo not drawn) | – | > 100 | – |
| CC(C)n1nnnc1C1c2ccccc2C(=O)N1CCOc1ccccc1 (stereo not drawn) | – | 0.989 | – |
| O=C(Nc1cccc(Oc2ccc3c(c2)C(=O)NC3=O)c1)c1cccs1 | – | 13 | – |
| Cc1ccccc1S(=O)(=O)c1cc2ccccc2nc1N | – | > 100 | – |
| O=S(=O)(c1cccc(-c2nc3ccccc3s2)c1)N1CCCC1 | – | > 100 | – |
| FC(F)(F)c1ccc(Cl)c(-n2c(Cc3cccs3)n[nH]c2=S)c1 | – | > 100 | – |
| CCCc1nc2oc3c(NCCCN(C)C)ncnc3c2c2c1CCCC2 | – | 6.74 | – |
| CCOc1cc(/C=C(\CC(=O)O)c2nc3ccccc3s2)ccc1OC | – | > 100 | – |
| COC(=O)c1sccc1NC(=O)Cn1nnc(-c2ccccc2C)n1 | – | 45.1 | – |
| COC(=O)c1cc(C(=O)Cc2ccccc2)c[nH]1 | – | > 100 | – |
| COC(=O)c1ccc(CSc2nc3ccccc3s2)o1 | – | 39 | – |

Source: PubChem BioAssay AID977621 (Broad Institute, 2014)
